According to EP0017970A1, “Novel beta-lactam derivatives and process for production thereof” (SANRAKU-OCEAN CO., LTD., priority 1979, dated 1980):
Converted amounts (≈) assume the structure as drawn.

Assays:
[1] = Test for concentration in blood (plasma of mouse, bioassay); assay type: in vivo; details: sc, subcutaneous, 2 mg/mouse, average on five mice; for Cmax: bioassay with Comamonas terrigena B-996, read-out: Maximum concentration; for half-life: read-out: Half period (period that elapsed until the concentration was reduced to half)
Procedure: Typical species of the compounds of formula (VI-b) were each administered subcutaneously to five mice in a dose of 2 mg. After 5 minutes from the administration, a small amount of blood was periodically drawn from the eyes of the mice into a heparinized capillary tube, and centrifuged. The concentration of the compound in the supernatant liquid (plasma) was determined by a bioassay method using Comamonas terri^gena B-996.

[2] = system: S. aureus; test: Disc diffusion assay in nutrient broth containing 10% horse serum; assay type: cell-based
Description: The compounds of formula (I) provided by this invention show excellent antimicrobial activities in in vitro tests in horse serum as shown in Table IV below.

[3] = system: Staphylococcus aureus Smith strain; test: Infection treating test (CD50); assay type: in vivo; details: in Mus musculus, sc, 2 h, mice infected intraperitoneally with 5 x 10^5 cells per mouse, subcutaneous injection two hours after the infection
Procedure: The in vivo activities of the compounds of formula (VI-b) were determined by using mice (five per group, male DDY mice, Shizuoka) which had been intraperitoneally infected with Staphylococcus aureus Smith strain in an amount of 5 x 10^5 cells per mouse. Two hours after the infection, an injection containing a sodium salt of each of the compounds of formula (VI-b) was subcutaneously administered to the mice.

[4] = system: Alcaligenes faecalis A 1; test: MIC, agar dilution assay; assay type: cell-based; details: Alcaligenes faecalis, A1, 20 h, 35°C for 20 hours, read-out: Antibiotic Activity minimum inhibitory concentration
Procedure: (§1) The antibiotic activities shown in Tables 1-1 to 1-9 above were determined in the following manner. The minimum inhibitory concentrations of the compounds of formula (VI-b) in Tables I-1 to 1-8 and the known compounds in Table 1-9 on the various microorganisms shown in the above tables were measured by an agar dilution assay method using a brain heart infusion agar medium "Difco" (a product of Difco Laboratories Inc.). A sample of the test compound was dissolved in sterile distilled water and diluted to prepare a twofold dilution series of the compound solution. In a betri dish of 9 cm in diameter, 1 ml of the compound solution was added to 9 ml of a molten sterile heart infusion agar medium (Difco Laboratories Inc.) at. about 60°C to prepare an agar plate containing the compound. An overnight culture of each test organism indicated in the above table, which was prepared by stationary cultivation in trypto-soy broth (Eiken Chemi. Co., Ltd.) at 35°C for 18 to 20 hours, was diluted with the trypto-soy broth to give approximately 10^8 cells/ml and the diluted inoculum was inoculated in the agar plate. After cultivating the plate at 35°C for 20 hours, the growth of the organism was observed. The minimum concentration of the compound at which no growth of the microorganism was noted was determined, and defined as the minimum inhibitory concentration of the test compound.

[5] = system: Escherichia coli K-12; test: MIC, agar dilution assay; assay type: cell-based; details: Escherichia coli, K12, 20 h, 35°C for 20 hours, read-out: Antibiotic Activity minimum inhibitory concentration
Procedure: as §1

[6] = system: Sarcina lutea; test: MIC, agar dilution assay; assay type: cell-based; details: Micrococcus luteus, 20 h, 35°C for 20 hours, read-out: Antibiotic Activity minimum inhibitory concentration
Procedure: as §1

[7] = system: Klebsiella pneumoniae K-13; test: MIC, agar dilution assay; assay type: cell-based; details: K13, 35°C for 20 hours, read-out: Antibiotic Activity minimum inhibitory concentration
Procedure: as §1

[8] = system: Enterobacter aerogenes E19; test: MIC, agar dilution assay; assay type: cell-based; details: Klebsiella aerogenes, E19, 20 h, 35°C for 20 hours, read-out: Antibiotic Activity minimum inhibitory concentration
Procedure: as §1

[9] = system: Staphylococcus aureus Smith; test: MIC, agar dilution assay; assay type: cell-based; details: Staphylococcus aureus, 20 h, 35°C for 20 hours, read-out: Antibiotic Activity minimum inhibitory concentration
Procedure: as §1

[10] = system: Staphylococcus epidermidis; test: MIC, agar dilution assay; assay type: cell-based; details: 20 h, 35°C for 20 hours, read-out: Antibiotic Activity minimum inhibitory concentration
Procedure: as §1

[11] = system: Enterobacter sp. E8; test: MIC, agar dilution assay; assay type: cell-based; details: Enterobacter, SP.E8, 20 h, 35°C for 20 hours, read-out: Antibiotic Activity minimum inhibitory concentration
Procedure: as §1

[12] = system: Enterobacter cloacae 45; test: MIC, agar dilution assay; assay type: cell-based; details: Enterobacter cloacae, 45, 20 h, 35°C for 20 hours, read-out: Antibiotic Activity minimum inhibitory concentration
Procedure: as §1

[13] = system: Citrobacter freundii GN 346; test: MIC, agar dilution assay; assay type: cell-based; details: GN346, 20 h, 35°C for 20 hours, read-out: Antibiotic Activity minimum inhibitory concentration
Procedure: as §1

[14] = system: Comamonas terrigena B-996; test: MIC, agar dilution assay; assay type: cell-based; details: Comamonas terrigena, B996, 20 h, 35°C for 20 hours, read-out: Antibiotic Activity minimum inhibitory concentration
Procedure: as §1

[15] = system: Staphylococcus aureus FDA 209P; test: MIC, agar dilution assay; assay type: cell-based; details: Staphylococcus aureus, FDA209P, 20 h, 35°C for 20 hours, read-out: Antibiotic Activity minimum inhibitory concentration
Procedure: as §1

[16] = system: Bacillus subtilis ATCC 6633; test: MIC, agar dilution assay; assay type: cell-based; details: Bacillus subtilis, ATCC6633, 20 h, 35°C for 20 hours, read-out: Antibiotic Activity minimum inhibitory concentration
Procedure: as §1

[17] = system: Escherichia coli RGN 823; test: MIC, agar dilution assay; assay type: cell-based; details: RGN823, 20 h, 35°C for 20 hours, read-out: Antibiotic Activity minimum inhibitory concentration
Procedure: as §1

[18] = system: Proteus mirabilis P6; test: MIC, agar dilution assay; assay type: cell-based; details: P6, 20 h, 35°C for 20 hours, read-out: Antibiotic Activity minimum inhibitory concentration
Procedure: as §1

[19] = system: Staphylococcus aureus Russell; test: MIC, agar dilution assay; assay type: cell-based; details: Staphylococcus aureus, 20 h, 35°C for 20 hours, read-out: Antibiotic Activity minimum inhibitory concentration
Procedure: as §1

SMILES	Cmax [1] [ng/mL]	half-life [1] [min]	ED50 [3] [mg/kg]	also measured
CCC1C(=O)N2C(C(=O)O)=C(SCCNC(=O)Cc3ccccc3)CC12 (stereo not shown) [R1=H R2=-CH2CH2NHCOCH2-[drawing] M=Na]	2800	6		
CCC1C(=O)N2C(C(=O)OC)=C(Br)CC12 (stereo not drawn) [Table IV r4 R=H X=Br M=CH3, methyl 3-bromo-6-ethyl-7-oxo-l-azabicyclo[3.2.0]hept-2-ene-2-carboxylate]				Inhibitory zone diameter [2]: 29.7 mm
CCC1C(=O)N2C(C(=O)O)=C(SCCO)CC12 (stereo not shown) [R1=H R2=-CH2CH2OH M=Na]	36900	6	1	
CC(=O)NCCSC1=C(C(=O)O)N2C(=O)[C@H](C(C)O)[C@H]2C1 (stereo partly shown) [PS-3A.Na, 3-(2-acetamidoethylthio)-6-(1-hydroxyethyl)-7-oxo-1-azabicyclo[3.2.0]hept-2-ene-2-carboxylic acid, reference compound]			4	
CC(O)C1C(=O)N2C(C(=O)OCc3ccc([N+](=O)[O-])cc3)=C(Br)CC12 (stereo not shown) [Table IV r8 R=OH X=Br M=[drawing]]				Inhibitory zone diameter [2]: 31.2 mm
CCC1C(=O)N2C(C(=O)O)=C(Sc3ccccn3)CC12 (stereo not shown) [Table I-2 R1=H]				MIC [4]: 0.1 µg/mL (≈ 0.344 µM); MIC [5]: 6.25 µg/mL (≈ 21.5 µM); MIC [6]: 0.0008 µg/mL (≈ 0.00276 µM); MIC [7]: 25 µg/mL (≈ 86.1 µM); MIC [8]: 25 µg/mL (≈ 86.1 µM); MIC [9]: 0.012 µg/mL (≈ 0.0413 µM); MIC [10]: 0.012 µg/mL (≈ 0.0413 µM); MIC [11]: 12.5 µg/mL (≈ 43.1 µM); MIC [12]: 50 µg/mL (≈ 172 µM); MIC [13]: 25 µg/mL (≈ 86.1 µM); MIC [14]: 0.003 µg/mL (≈ 0.0103 µM); MIC [15]: 0.006 µg/mL (≈ 0.0207 µM); MIC [16]: 0.012 µg/mL (≈ 0.0413 µM); MIC [17]: 6.25 µg/mL (≈ 21.5 µM); MIC [18]: 3.13 µg/mL (≈ 10.8 µM); MIC [19]: 0.012 µg/mL (≈ 0.0413 µM)
CCC1C(=O)N2C(C(=O)O)=C(SC3CCCCC3)CC12 (stereo not shown) [Table II r14 R1=H R2=[drawing] M=Na]	8240	7.2		
CCC1C(=O)N2C(C(=O)O)=C(Sc3ccccn3)CC12 (stereo not shown) [Table II r9 R1=H R2=[drawing] M=H]	48400	29	0.125	
CCC1C(=O)N2C(C(=O)O)=C(Sc3ccncc3)CC12 (stereo not shown) [Table II r5 R1=H R2=[drawing] M=H]	70700	16	0.063	
CC(O)[C@H]1C(=O)N2C(C(=O)O)=C(Sc3ccncc3)C[C@H]12 (relative stereo) [Table II r7 R1=-OH R2=[drawing] M=H*]	103000	18	0.125	
CC(O)[C@H]1C(=O)N2C(C(=O)O)=C(Sc3ncccn3)C[C@H]12 (relative stereo) [Table II r12 R1=-OH R2=[drawing] M=H*]	54000	25	0.25	
CCC1C(=O)N2C(C(=O)OC)=C(I)CC12 (stereo not drawn) [Table IV r9 R=H X=I M=CH3, methyl 3-iodo-6-ethyl-7-oxo-l-azabicyclo[3.2.0]hept-2-ene-2-carboxylate]				Inhibitory zone diameter [2]: 29.6 mm
CC(C)C1C(=O)N2C(C(=O)OCc3ccc([N+](=O)[O-])cc3)=C(Br)CC12 (stereo not shown) [Table IV r7 R=CH3 X=Br M=[drawing]]				Inhibitory zone diameter [2]: 26.8 mm
CC(=O)NCCSC1=C(C(=O)O)N2C(=O)C(C(C)O)C2C1 (stereo not shown) [PS-3B.Na, 3-(2-acetamidoethylthio)-6-(1-hydroxyethyl)-7-oxo-1-azabicyclo[3.2.0]hept-2-ene-2-carboxylic acid, reference compound]	26300	5		
CCC1C(=O)N2C(C(=O)O)=C(Sc3ncccn3)CC12 (stereo not shown) [Table II r10 R1=H R2=[drawing] M=H]	23600	22	0.25	
CC(C)C1C(=O)N2C(C(=O)O)=C(Sc3ccccn3)CC12 (stereo not shown) [Table I-2 R1=-CH3]				MIC [4]: 0.2 µg/mL (≈ 0.657 µM); MIC [5]: 12.5 µg/mL (≈ 41.1 µM); MIC [6]: 0.004 µg/mL (≈ 0.0131 µM); MIC [7]: 50 µg/mL (≈ 164 µM); MIC [8]: 50 µg/mL (≈ 164 µM); MIC [9]: 0.013 µg/mL (≈ 0.0427 µM); MIC [10]: 0.05 µg/mL (≈ 0.164 µM); MIC [11]: 25 µg/mL (≈ 82.1 µM); MIC [12]: > 100 µg/mL; MIC [13]: 50 µg/mL (≈ 164 µM); MIC [14]: 0.007 µg/mL (≈ 0.023 µM); MIC [15]: 0.007 µg/mL (≈ 0.023 µM); MIC [16]: 0.05 µg/mL (≈ 0.164 µM); MIC [17]: 12.5 µg/mL (≈ 41.1 µM); MIC [18]: 6.25 µg/mL (≈ 20.5 µM); MIC [19]: 0.013 µg/mL (≈ 0.0427 µM)
COC(=O)C1=C(I)CC2C(C(C)O)C(=O)N12 (stereo not shown) [Table IV r11 R=OH X=I M=CH3]				Inhibitory zone diameter [2]: 31.0 mm
CC(O)[C@@H]1C(=O)N2C(C(=O)O)=C(Sc3ccncc3)C[C@H]12 (relative stereo) [Table II r8 R1=-OH R2=[drawing] M=H**]	29000	13.5	0.125	
CC(C)C1C(=O)N2C(C(=O)O)=C(Sc3ncccn3)CC12 (stereo not shown) [Table II r11 R1=-CH3 R2=[drawing] M=H]	21200	18.2	1	
CCC1C(=O)N2C(C(=O)O)=C(Sc3ccccc3)CC12 (stereo not shown) [Table II r15 R1=H R2=[drawing] M=Na]	11300	25.2		
CC(O)[C@@H]1C(=O)N2C(C(=O)O)=C(Sc3ncccn3)C[C@H]12 (relative stereo) [Table II r13 R1=-OH R2=[drawing] M=H**]	23300	19	0.25	
CC(C)C1C(=O)N2C(C(=O)O)=C(SCCN(C)C)CC12 (stereo not shown) [R1=-CH3 R2=-CH2CH2N(CH3)2 M=H]	22000	6.1	2	
CCC1C(=O)N2C(C(=O)OCc3ccccc3)=C(Br)CC12 (stereo not shown) [Table IV r5 R=H X=Br M=[drawing]]				Inhibitory zone diameter [2]: 30.2 mm
CCC1C(=O)N2C(C(=O)O)=C(SCCNC(C)=O)CC12 (stereo not shown) [PS-5.Na, 3-(2-acetamidoethylthio)-6-ethyl-7-oxo-1-azabicyclo[3.2.0]hept-2-ene-2-carboxylic acid, reference compound]	40000	7	1	
CCC1C(=O)N2C(C(=O)OCc3ccc([N+](=O)[O-])cc3)=C(Br)CC12 (stereo not shown) [Table IV r6 R=H X=Br M=[drawing]]				Inhibitory zone diameter [2]: 28.6 mm
CCC1C(=O)N2C(C(=O)O)=C(SCCN(C)C)CC12 (stereo not shown) [R1=H R2=-CH2CH2N(CH3)2 M=H]	36200	6	0.25	
CC(=O)NCCSC1=C(C(=O)O)N2C(=O)C(C(C)C)C2C1 (stereo not shown) [PS-6.Na, 3-(2-acetamidoethylthio)-6-isopropyl-7-oxo-1-azabicyclo[3.2.0]hept-2-ene-2-carboxylic acid, reference compound]	23800	5	8	
CCC1C(=O)N2C(C(=O)OCc3ccccc3)=C(I)CC12 (stereo not shown) [Table IV r10 R=H X=I M=[drawing]]				Inhibitory zone diameter [2]: 30.0 mm
CC(C)C1C(=O)N2C(C(=O)O)=C(Sc3ccncc3)CC12 (stereo not shown) [Table II r6 R1=-CH3 R2=[drawing] M=H]	30700	15.2	0.5	
